Source: patent US8071325B2, “Flow cytometric method and kit for metal-induced sensitivity” (The Trustees of the University of Pennsylvania, priority 2004, dated 2011)
Marks after values point to notes of the source that are not given here.

Experiments:
[1] = test system: CFSE-labeled peripheral blood lymphocytes (CD3+, CD3+/CD4+, CD3+/CD8+ T cells); assay: CFSE dye dilution proliferation measured by flow cytometry; assay type: cell-based, human; conditions: for proliferative ratio (PR, %M2/%M1): mean +/- SEM
Method: Cell surface marker staining was performed. The following monoclonal antibodies were used: Phycoerythin (PE) conjugated anti-human CD4, Tricolor-conjugated anti-human CD3, Allophycocyanin (APC) conjugated anti-human CD8 (Caltag, Burlingame, Calif.). The vital dye TO-PRO®-3 (Molecular Probes Inc., Eugene, Oreg.) was used to discriminate live and dead cells.
The CFSE labeling method was adapted from a previously described protocol. Aliquots of the same PBL sample used in the BeLPT assay were split and washed three times in 10 ml of phosphate buffered saline (dPBS, Gibco BRL, Grand Island, N.Y.) at room temperature. The cells were adjusted to 10^6 cells per milliliter, and CFSE (Molecular Probes, Eugene, Oreg.) was added at a final concentration of 1 μM/ml. The cells were vortexed for ten seconds and then incubated for ten minutes in the dark at room temperature with gentle shaking. After incubation an equal volume of sterile, heat inactivated human serum (Gibco BRL, Grand Island, N.Y.) was added to the sample for one minute to quench the reaction. The cells were washed twice, adjusted to the concentration 2×10^6/ml in 10% human heat inactivated serum.
Following CFSE (carboxy fluorescein diacetate succinimide ester) labeling, the cells were cultured in 24-well plates at 2×10^6 per well in the presence of either media alone, PHA, Candida, or either 10 or 100 μM of beryllium sulfate. The cells were incubated for seven days at 37° C. and 5% CO2. Preliminary experiments titrated the optimal dose of CFSE and time of incubation. Surface labeling was performed at the time of harvest using CD3TC, CD4PE and CD8APC in some experiments. TO-PRO®-3 was added to define live cells in some experiments.
All data were acquired on a four-color, dual laser FACSCalibur (Becton Dickinson, San Jose, Calif.). CFSE was measured in Fl-1 channel (530/30-nm bandpass filter), CD4PE in the Fl-2 channel (585/42-nm bandpass filter), CD3TC in the Fl-3-channel (670-nm longpass filter) using excitation from the 488 nm blue laser and TO-PRO®-3 or CD8APC in Fl-4 channel (661/16 bandpass filter) by excitation using the 635 nm red diode laser. Compensation for CFSE in multiparameter flow cytometry is dose dependent and determined empirically.
The basic analysis gating strategy was as follows (FIG. 1): for analysis of CD3+ T cells alone, an initial region was defined as lymphocytes by light scatter and a broad region was set to include medium to high forward/low side scatter events after stimulation with PHA (FIG. 1A, R1) to include all proliferating lymphocytes. For CD3+ T cells, the R1 data were plotted in a contour plot of CD3TC versus TO-PRO®-3 to identify the live CD3+ T Cells (FIG. 1B, R2). The R2 population was expressed on a contour plot of CD3+CD4+ where a double positive region was defined as R3 (FIG. 1C). For final analyses, each population was then analyzed for CFSE (FL1) fluorescence, representing proliferation, on a single parameter histogram using a logical gate of either R1*R2 for CD3+ cells only and R1*R2*R3 for CD3+4+ cells. In experiments where only data from CD3+ or CD3+4+ cells were collected, a live gate on TO-PRO®-3 negative (“viable”) cells was also used in acquisition. When specific CD4+ and CD8+ T cell determination was performed, the viability dye was eliminated. The strategy was similar to that above with light scatter gating (R1) followed by identification of the CD3+ events using a SSC vs CD3+ plot (R2) and CD4+ (R3) and CD8+(R4) identification followed by single parameter histogram analysis of the CFSE fluorescence (for CD4+, R1*R2*R3; for CD8, R1*R2*R4*).
CFSE flow cytometric data files were analyzed using CellQuest™ acquisition/analysis software (Becton Dickinson, San Jose, Calif.). Fifty thousand (50,000) events were collected. The data are reported as the proliferative ratio (PR) defined as the ratio of the percentage of divided cells to undivided cells on day 7 (%M2/%M1). […]

[2] = test system: Peripheral blood lymphocytes (PBLs); assay: Blood BeLPT (3H-thymidine incorporation assay); assay type: cell-based, human; conditions: for stimulation index (SI): mean ± SEM
Method: Beryllium workers (present and former), referred to the Hospital of the University of Pennsylvania (HUP) for possible CBD, were tested. […] CBD was diagnosed when there was evidence of BH with granulomas on biopsy and/or radiologic changes consistent with a granulomatous process. Normal unexposed volunteers were used as controls.
Peripheral blood lymphocytes (PBLs) were isolated from heparinized blood under sterile conditions using density centrifugation with lymphocyte separation medium (ICN Biomedicals Inc., Aurora, Ohio). Blood BeLPT was performed. The cells were cultured at a concentration of 2.5×10^5 cells/well. Stimulants included 500 μg/ml of phytohemagglutinin (PHA) (L-9132; Sigma Chemical Co., St Louis, Mo.), 20 μl/ml of Candida(M15; Greer Labs, Lenoir, N.C.) and 100 μM or 10 μM of beryllium sulfate (Blush Wellman, Cleveland, OH). After culturing the cells in an incubator (5% CO2 and 37° C.) for 3, 5 or 7 days, the cells were pulsed with ^3H thymidine (DuPont NEN, Boston, Mass.) overnight (ice. 16-24 hours) and then harvested on a filter fiber (Wallac, Turku, Finland). The uptake of ^3H thymidine was measured as counts per minute (CPM) using a Wallac 1205 beta plate liquid scintillation system (Wallac Inc., Gaithersburg, Md.). Results were expressed as a stimulation index (SI=mean CPM of test wells/mean CPM of control wells). A positive response was defined as a SI>3.0 for blood A positive test required that a positive response be recorded on two different days or at two different concentrations of beryllium.
All values are presented as ± SEM (standard error of the mean). Data are only presented if a minimum of 1,000 cells were detected within a population. For the tritiated thymidine test, the results were expressed as a stimulation index and group differences (between controls and beryllium-sensitive populations) were evaluated using the Student's T test. For the CFSE tests, since the results were expressed as PR, the Mann-Whitney version of the […] was used to determine if there was a difference between the normal donors and the beryllium exposed patients. Statistical significance was defined as p<0.05.

phytohemagglutinin [PHA]
CFSE-determined response (in words) ([1]; CD3+ and CD3+CD4+ cells from both the control and the beryllium-sensitive populations): positive responses | CFSE-determined response (in words) ([1]; CD3+, CD3+/CD4+ and CD3+/CD8+ T cells from controls (n=6) and beryllium-sensitized (n=14) populations): responded | proliferative ratio (PR, %M2/%M1) ([1]; CD3+/CD4+, PHA, day 7, beryllium-exposed sensitized (n = 24)): 15.756 ± 5.094 | proliferative ratio (PR, %M2/%M1) ([1]; CD3+/CD4+, PHA, day 7, normal controls (n = 9)): 10.064 ± 2.753 | proliferative ratio (PR, %M2/%M1) ([1]; CD3+, PHA, day 7, beryllium-exposed sensitized (n = 24)): 10.358 ± 4.730 | proliferative ratio (PR, %M2/%M1) ([1]; CD3+, PHA, day 7, normal controls (n = 9)): 9.853 ± 2.908 | stimulation index (SI) ([2]; Day 3, PHA 500 μg/ml, beryllium-exposed sensitized (n = 24)): 178 ± 23.2 | stimulation index (SI) ([2]; Day 3, PHA 500 μg/ml, normal controls (n = 9)): 137 ± 38.9 | proliferative response by thymidine incorporation (in words) ([2]; control and beryllium-sensitized populations, PHA on day 3, Candida on day 5 and on day 7): Positive responses

O=S(=O)([O-])[O-].[Be+2] [Be, beryllium sulfate]
CFSE-determined response, sensitized versus controls (in words) ([1]; CD3+ and CD3+/CD4+ T cells from beryllium-sensitized subjects, both doses): significant difference | CFSE-determined response (in words) ([1]; CD3+ or CD3+/CD4+ high cells from controls, 10 or 100 μM): minimal response | proliferative ratio (PR, %M2/%M1) ([1]; CD3+/CD4+, Be 10 μM, day 7, beryllium-exposed sensitized (n = 24)): 0.105 ± 0.038 | proliferative ratio (PR, %M2/%M1) ([1]; CD3+/CD4+, Be 10 μM, day 7, normal controls (n = 9)): 0.027 ± 0.005 | proliferative ratio (PR, %M2/%M1) ([1]; CD3+/CD4+, Be 100 μM, day 7, beryllium-exposed sensitized (n = 24)): 0.089 ± 0.027 | proliferative ratio (PR, %M2/%M1) ([1]; CD3+/CD4+, Be 100 μM, day 7, normal controls (n = 9)): 0.029 ± 0.010 | proliferative ratio (PR, %M2/%M1) ([1]; CD3+, Be 10 μM, day 7, beryllium-exposed sensitized (n = 24)): 0.115 ± 0.046 | proliferative ratio (PR, %M2/%M1) ([1]; CD3+, Be 10 μM, day 7, normal controls (n = 9)): 0.027 ± 0.005 | proliferative ratio (PR, %M2/%M1) ([1]; CD3+, Be 100 μM, day 7, beryllium-exposed sensitized (n = 24)): 0.099 ± 0.026 | proliferative ratio (PR, %M2/%M1) ([1]; CD3+, Be 100 μM, day 7, normal controls (n = 9)): 0.030 ± 0.008 | CFSE-determined response, sensitized versus normal donors (in words) ([1]; CD8+ T cells, normal donors or beryllium-sensitized individuals): no differences were noted | proliferative ratio (PR, %M2/%M1) ([1]; Table 3 series (CD8 APC staining), CD3+, Be 10 μM, beryllium-exposed sensitized (n = 14)): 0.156 +/− 0.114‡ | proliferative ratio (PR, %M2/%M1) ([1]; Table 3 series (CD8 APC staining), CD3+, Be 10 μM, normal controls (n = 6)): 0.012 +/− 0.002^† | proliferative ratio (PR, %M2/%M1) ([1]; Table 3 series (CD8 APC staining), CD3+, Be 100 μM, beryllium-exposed sensitized (n = 14)): 0.188 +/− 0.137‡ | proliferative ratio (PR, %M2/%M1) ([1]; Table 3 series (CD8 APC staining), CD3+, Be 100 μM, normal controls (n = 6)): 0.013 +/− 0.002 | proliferative ratio (PR, %M2/%M1) ([1]; Table 3 series, CD4+ (CD3+/CD4+), Be 10 μM, beryllium-exposed sensitized (n = 14)): 0.164 +/− 0.112‡ | proliferative ratio (PR, %M2/%M1) ([1]; Table 3 series, CD4+ (CD3+/CD4+), Be 10 μM, normal controls (n = 6)): 0.015 +/− 0.003 | proliferative ratio (PR, %M2/%M1) ([1]; Table 3 series, CD4+ (CD3+/CD4+), Be 100 μM, beryllium-exposed sensitized (n = 14)): 0.210 +/− 0.114‡ | proliferative ratio (PR, %M2/%M1) ([1]; Table 3 series, CD4+ (CD3+/CD4+), Be 100 μM, normal controls (n = 6)): 0.015 +/− 0.002 | proliferative ratio (PR, %M2/%M1) ([1]; Table 3 series, CD8+ (CD3+/CD8+), Be 10 μM, beryllium-exposed sensitized (n = 11)): 0.016 +/− 0.003 | proliferative ratio (PR, %M2/%M1) ([1]; Table 3 series, CD8+ (CD3+/CD8+), Be 10 μM, normal controls (n = 4)): 0.013 +/− 0.003 | proliferative ratio (PR, %M2/%M1) ([1]; Table 3 series, CD8+ (CD3+/CD8+), Be 100 μM, beryllium-exposed sensitized (n = 11)): 0.019 +/− 0.002 | proliferative ratio (PR, %M2/%M1) ([1]; Table 3 series, CD8+ (CD3+/CD8+), Be 100 μM, normal controls (n = 4)): 0.011 +/− 0.004 | CFSE-determined response (in words) ([1]; beryllium-sensitive population, CD3+ population, 10 μM, p<0.05): significant positive response | CFSE-determined response (in words) ([1]; beryllium-sensitive population, CD3+/CD4+ population, 10 μM and 100 μM, p<0.05): significant positive response | stimulation index (SI) ([2]; Day 5, Be 10 μM, beryllium-exposed sensitized (n = 24)): 12.1 ± 3.96 | stimulation index (SI) ([2]; Day 5, Be 10 μM, normal controls (n = 9)): 0.72 ± 0.08 | stimulation index (SI) ([2]; Day 5, Be 100 μM, beryllium-exposed sensitized (n = 24)): 12.8 ± 4.93 | stimulation index (SI) ([2]; Day 5, Be 100 μM, normal controls (n = 9)): 0.74 ± 0.09 | stimulation index (SI) ([2]; Day 7, Be 10 μM, beryllium-exposed sensitized (n = 24)): 12.5 ± 4.43 | stimulation index (SI) ([2]; Day 7, Be 10 μM, normal controls (n = 9)): 0.44 ± 0.08 | stimulation index (SI) ([2]; Day 7, Be 100 μM, beryllium-exposed sensitized (n = 24)): 11.5 ± 4.86 | stimulation index (SI) ([2]; Day 7, Be 100 μM, normal controls (n = 9)): 0.52 ± 0.12 | proliferative response by thymidine incorporation (in words) ([2]; beryllium-sensitized population, p<0.05): positive responses were noted | proliferative response by thymidine incorporation (in words) ([2]; control group): positive responses to beryllium were not noted
